# In patent publication US20090263324A1, “Animal Model With Induced Arrhythmia” (priority 2005, published 2009):
# Key:
# [1] = tested on: chronic atrioventricular block monkeys; test: Evaluation of QT interval prolongation by dl-sotalol (Holter electrocardiogram); type: in vivo, cynomolgus monkey; conditions: oral administration of 5 mg/kg
# Description: QTc interval (ms) is a value obtained by correcting the fluctuation of QT interval due to heart rate by a numerical formula, and can be obtained by the following equation.
# QTc=QT÷^3√{square root over ( )} (60÷ventricular rhythm)
# Here, ventricular rhythm refers to the frequency of excitation of the ventricle in a complete atrioventricular block, and the unit of measurement is beat/minute.
# Next, a comparison is made between the QT interval or QTc interval in the recipient animal and the QT interval or QTc interval in the same animal but before administration. QT interval or QTc interval prolongation can be determined by (value after administration)−(value before administration).
# As the control solution, 0.5% methylcellulose solution was orally administered, and changes of electrocardiogram were examined; on a later day, 5 mg/kg dl-sotalol (group-3 antiarrhythmic agent) was orally administered to the same animals, and electrocardiogram was measured.
# [2] = tested on: chronic atrioventricular block monkey model; test: Examination for onset of Torsades de pointes (TdP) with dl-sotalol administration; type: in vivo, cynomolgus monkey; conditions: five animals
# Method: A Holter electrocardiograph was attached to each of five animals of the chronic atrioventricular block monkey model obtained in Example 1; 1, 3, 5 or 10 mg/kg dl-sotalol was orally administered to each animal, and electrocardiogram after administration was monitored.
structure (smiles),measurement,setting,value
CC(C)NCC(O)c1ccc(NS(C)(=O)=O)cc1 (racemic) [dl-sotalol],time after administration with statistically significant QTc action compared to the solvent group,[1],1 to 4 h
same,QTc interval prolongation,"[1]; Holter electrocardiograph for 24 hours, compared to the solvent group",QTc interval prolongation was observed
same,animals in which TdP occurred,[2]; 5 mg/kg orally,4 of the 5 animals
same,animals in which TdP occurred,[2]; 10 mg/kg orally,all animals
